Results reported in patent US20240391959A1, “BICYCLIC PEPTIDE LIGANDS […] FOR TRANSFERRIN RECEPTOR 1 (TfR1)” (BicycleTx Limited, priority 2020, published 2024).
Several values for one entry are separate records, joined by “and”; a condition that tells them apart may be missing. Equal values may be shown once. Read-outs that look alike come from different tables or passages of the source. Starred links: 1 amine or outer side, 2 acyl side, 3 side chain; linkers in the order of their positions; H or OH if unused. Positions of bridges follow the written chain, without caps; N, C: chain ends. Residues, ends and D or L forms follow the SMILES beside them. TATB = O=C(C[*:1])N1CN(C(=O)C[*:2])CN(C(=O)C[*:3])C1

Columns and labels:
Type in all cases: binding
human TfR1 [1] = target: T1, human TfR1 (Homo sapiens, UniProt P02786); assay: biochemical; set-up: His6-tagged TfR1 (a.a. 89-760) (ACRO Biosystems, CD1-H5243 and TFR-C524a); His6; purchased R&D Systems or Acro Biosystems 2474-TR or CD1-H5243
T1 sequence (P02786 89-760): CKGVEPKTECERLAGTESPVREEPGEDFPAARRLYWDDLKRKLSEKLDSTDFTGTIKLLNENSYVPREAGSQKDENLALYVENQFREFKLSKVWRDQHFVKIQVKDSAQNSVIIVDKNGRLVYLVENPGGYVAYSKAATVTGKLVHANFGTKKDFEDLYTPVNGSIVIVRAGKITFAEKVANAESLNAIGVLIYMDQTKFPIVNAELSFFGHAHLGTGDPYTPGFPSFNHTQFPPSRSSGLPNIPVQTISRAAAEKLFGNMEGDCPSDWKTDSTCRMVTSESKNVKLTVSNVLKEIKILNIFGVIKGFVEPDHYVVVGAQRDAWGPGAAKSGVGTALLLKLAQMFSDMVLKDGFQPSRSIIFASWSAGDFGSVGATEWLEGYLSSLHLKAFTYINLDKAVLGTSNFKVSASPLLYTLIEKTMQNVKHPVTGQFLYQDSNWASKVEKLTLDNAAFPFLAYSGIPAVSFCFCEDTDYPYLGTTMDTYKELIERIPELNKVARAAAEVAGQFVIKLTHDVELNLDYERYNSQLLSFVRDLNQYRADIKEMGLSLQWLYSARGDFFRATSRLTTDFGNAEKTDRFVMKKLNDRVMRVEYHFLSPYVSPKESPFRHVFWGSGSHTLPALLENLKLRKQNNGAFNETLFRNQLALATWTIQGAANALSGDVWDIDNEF

cynomolgus TfR1 = target: cynomolgus TfR1
human TfR1 [2] = target: T1, human TfR1; assay: biochemical; set-up: His6-tagged TfR1 (a.a. 89-760) (ACRO Biosystems, CD1-H5243 and TFR-C524a); His6; purchased R&D Systems or Acro Biosystems 2474-TR or CD1-H5243; remark: listed apart in the source

CC[C@H](C)[C@@H]1NC(=O)[C@@H]2CSCC(=O)N3CN(CN(C3)C(=O)CSC[C@H](NC(=O)[C@H](CC(N)=O)NC(=O)[C@@H](Cc3c[nH]c4ccccc34)NC(=O)[C@H](CC(N)=O)NC(C)=O)C(=O)N[C@@H](CO)C(=O)N3CCC[C@H]3C(=O)N[C@@H](CC(=O)O)C(=O)N[C@@H](C)C(=O)N[C@@H](Cc3c[nH]cn3)C(=O)N[C@@H](CC(C)C)C(=O)NCC(=O)N2)C(=O)CSC[C@@H](C(N)=O)NC(=O)[C@H](Cc2ccc(O)cc2)NC(=O)[C@H](CO)NC1=O [BCY18035, Ac-N[dW]N-(SEQ ID NO: 9)]
Ki (human TfR1 [1]; Geomean Ki (μM)): 0.02 µM
Kd (cynomolgus TfR1): 10300 nM

CC[C@H](C)[C@@H]1NC(=O)[C@@H]2CSCC(=O)N3CN(CN(C3)C(=O)CSC[C@H](NC(=O)[C@H](CC(N)=O)NC(=O)[C@H](Cc3c[nH]c4ccccc34)NC(=O)[C@@H](N)CC(N)=O)C(=O)N[C@@H](CO)C(=O)N3CCC[C@H]3C(=O)N[C@@H](CC(=O)O)C(=O)N[C@@H](C)C(=O)N[C@@H](Cc3c[nH]cn3)C(=O)N[C@@H](CC(C)C)C(=O)NCC(=O)N2)C(=O)CSC[C@@H](C(=O)N[C@@H](C)C(N)=O)NC(=O)[C@H](Cc2ccc(O)cc2)NC(=O)[C@H](CO)NC1=O [BCY17109, NWN-(SEQ ID NO: 9)-A]
Ki (human TfR1 [1]; Geomean Ki (μM)): 0.009 µM
Kd (cynomolgus TfR1): 281 nM and 535 nM

CC[C@H](C)[C@@H]1NC(=O)[C@@H]2CSCC(=O)N3CN(CN(C3)C(=O)CSC[C@H](NC(=O)[C@H](CO)NC(=O)[C@@H](NC(=O)[C@@H](N)Cc3c[nH]cn3)[C@@H](C)O)C(=O)N[C@@H](CO)C(=O)N3CCC[C@H]3C(=O)N[C@@H](CC(=O)O)C(=O)N[C@@H](C)C(=O)N[C@@H](Cc3c[nH]cn3)C(=O)N[C@@H](CC(C)C)C(=O)NCC(=O)N2)C(=O)CSC[C@@H](C(=O)N[C@@H](C)C(N)=O)NC(=O)[C@H](Cc2ccc(O)cc2)NC(=O)[C@H](CO)NC1=O [BCY17111, HTS-(SEQ ID NO: 9)-A] (H-HTSCSPDAHLGCISYCA-NH2; linker 4-12-16 via TATB)
Kd (human TfR1 [2]; Human TfR1 Kd (nM)): 8.3 nM
Ki (human TfR1 [1]; Geomean Ki (μM)): 0.086 µM
Kd (cynomolgus TfR1): 907 nM

CC[C@H](C)[C@@H]1NC(=O)[C@@H]2CSCC(=O)N3CN(CN(C3)C(=O)CSC[C@@H](C(=O)N[C@@H](C)C(N)=O)NC(=O)[C@H](Cc3ccc4ccccc4c3)NC(=O)[C@H](CO)NC1=O)C(=O)CSC[C@H](NC(=O)[C@H](C)N)C(=O)N[C@@H](CO)C(=O)N1CCC[C@H]1C(=O)N[C@@H](CC(=O)O)C(=O)N[C@@H](C)C(=O)N[C@@H](Cc1c[nH]cn1)C(=O)N[C@@H](CC(C)C)C(=O)NCC(=O)N2 [BCY16031, A-(SEQ ID NO: 36)-A]
Kd (human TfR1 [2]; read-out: Human TfR1 Kd): 68 nM
Ki (human TfR1 [1]; Geomean Ki (μM)): 0.119 µM
Kd (cynomolgus TfR1): 6480 nM

CC[C@H](C)[C@@H]1NC(=O)[C@@H]2CSCC(=O)N3CN(CN(C3)C(=O)CSC[C@H](NC(C)=O)C(=O)N[C@@H](CO)C(=O)N[C@@H](C)C(=O)N[C@@H](CC(=O)O)C(=O)N[C@@H](C)C(=O)N[C@@H](Cc3c[nH]cn3)C(=O)N[C@@H](CC(C)C)C(=O)NCC(=O)N2)C(=O)CSC[C@@H](C(N)=O)NC(=O)[C@H](Cc2ccc(O)cc2)NC(=O)[C@H](CO)NC1=O [BCY17987, Ac-(SEQ ID NO: 19)] (Ac-CSADAHLGCISYC-NH2; linker 1-9-13 via TATB)
Kd (human TfR1 [2]; Human TfR1 Kd (nM)): 50 nM
Ki (human TfR1 [1]; Geomean Ki (μM)): 0.042 µM
Ki (human TfR1 [1]; Human TfR1 Ki (nM)): 0.383 µM
Kd (cynomolgus TfR1): 5140 nM

CC[C@H](C)[C@@H]1NC(=O)[C@@H]2CSCC(=O)N3CN(CN(C3)C(=O)CSC[C@H](NC(C)=O)C(=O)N[C@@H](CO)C(=O)N3CCC[C@H]3C(=O)N[C@@H](CC(=O)O)C(=O)N[C@@H](C)C(=O)N[C@@H](Cc3c[nH]cn3)C(=O)N[C@@H](CC(C)C)C(=O)NCC(=O)N2)C(=O)CSC[C@@H](C(N)=O)NC(=O)[C@H](Cc2ccc(O)cc2)NC(=O)[C@H](CO)NC1=O [BCY15891, Ac-(SEQ ID NO: 9)] (Ac-CSPDAHLGCISYC-NH2; linker 1-9-13 via TATB)
Kd (human TfR1 [2]; Human TfR1 Kd (nM)): 46 nM
Ki (human TfR1 [1]; Geomean Ki (μM)): 0.067 µM
Ki (human TfR1 [1]; Human TfR1 Ki (nM)): 0.094 µM
Kd (cynomolgus TfR1): 3990 nM

CC[C@H](C)[C@@H]1NC(=O)[C@@H]2CSCC(=O)N3CN(CN(C3)C(=O)CSC[C@H](NC(=O)[C@H](CC(N)=O)NC(=O)[C@H](Cc3cccc4ccccc34)NC(=O)[C@H](CC(N)=O)NC(C)=O)C(=O)N[C@@H](CO)C(=O)N3CCC[C@H]3C(=O)N[C@@H](CC(=O)O)C(=O)N[C@@H](C)C(=O)N[C@@H](Cc3c[nH]cn3)C(=O)N[C@@H](CC(C)C)C(=O)NCC(=O)N2)C(=O)CSC[C@@H](C(N)=O)NC(=O)[C@H](Cc2ccc(O)cc2)NC(=O)[C@H](CO)NC1=O [BCY18034, Ac-N[1Nal]N-(SEQ ID NO: 9)]
Ki (human TfR1 [1]; Human TfR1 Ki (nM)): 0.01 µM
Kd (cynomolgus TfR1): 2080 nM

CC[C@H](C)[C@@H]1NC(=O)[C@@H]2CSCC(=O)N3CN(CN(C3)C(=O)CSC[C@@H](C(=O)N[C@@H](CCC(=O)O)C(=O)N3CC[C@H]3C(=O)N[C@@H](Cc3c[nH]c4ccccc34)C(N)=O)NC(=O)[C@H](Cc3ccc(O)cc3)NC(=O)[C@H](CO)NC1=O)C(=O)CSC[C@H](NC(C)=O)C(=O)N[C@@H](CO)C(=O)N1CCC[C@H]1C(=O)N[C@@H](CC(=O)O)C(=O)N[C@@H](C)C(=O)N[C@@H](Cc1c[nH]cn1)C(=O)N[C@@H](CC(C)C)C(=O)NCC(=O)N2 [BCY18037, Ac-(SEQ ID NO: 9)-E[Aze]W]
Kd (cynomolgus TfR1): 1080 nM

CC[C@H](C)[C@@H]1NC(=O)[C@@H]2CSCC(=O)N3CN(CN(C3)C(=O)CSC[C@@H](C(=O)N[C@@H](CCC(=O)O)C(=O)N3CCC[C@H]3C(=O)N[C@@H](Cc3c[nH]c4ccccc34)C(N)=O)NC(=O)[C@H](Cc3ccc(O)cc3)NC(=O)[C@H](CO)NC1=O)C(=O)CSC[C@H](NC(C)=O)C(=O)N[C@@H](CO)C(=O)N1CCC[C@H]1C(=O)N[C@@H](CC(=O)O)C(=O)N[C@@H](C)C(=O)N[C@@H](Cc1c[nH]cn1)C(=O)N[C@@H](CC(C)C)C(=O)NCC(=O)N2 [BCY17994, Ac-(SEQ ID NO: 9)-EPW]
Ki (human TfR1 [1]; Geomean Ki (μM)): 0.008 µM
Ki (human TfR1 [1]; Human TfR1 Ki (nM)): 0.008 µM
Kd (cynomolgus TfR1): 688 nM

CC[C@H](C)[C@@H]1NC(=O)[C@@H]2CSCC(=O)N3CN(CN(C3)C(=O)CSC[C@@H](C(=O)N[C@@H](C)C(N)=O)NC(=O)[C@H](Cc3ccc(O)c(C(C)(C)C)c3)NC(=O)[C@H](CO)NC1=O)C(=O)CSC[C@H](NC(=O)[C@H](C)N)C(=O)N[C@@H](CO)C(=O)N1CCC[C@H]1C(=O)N[C@@H](CC(=O)O)C(=O)N[C@@H](C)C(=O)N[C@@H](Cc1c[nH]cn1)C(=O)N[C@@H](CC(C)C)C(=O)NCC(=O)N2 [BCY16079, A-(SEQ ID NO: 37)-A]
Kd (human TfR1 [2]; Human TfR1 Kd (nM)): 60 nM
Kd (cynomolgus TfR1): 5660 nM

CC[C@H](C)[C@@H]1NC(=O)[C@@H]2CSCC(=O)N3CN(CN(C3)C(=O)CSC[C@H](NC(C)=O)C(=O)N[C@@H](CO)C(=O)N3CC[C@H]3C(=O)N[C@@H](CC(=O)O)C(=O)N[C@@H](C)C(=O)N[C@@H](Cc3c[nH]cn3)C(=O)N[C@@H](CC(C)C)C(=O)NCC(=O)N2)C(=O)CSC[C@@H](C(N)=O)NC(=O)[C@H](Cc2ccc(O)cc2)NC(=O)[C@H](CO)NC1=O [BCY17988, Ac-(SEQ ID NO: 44)]
Kd (human TfR1 [2]; Human TfR1 Kd (nM)): 649 nM
Ki (human TfR1 [1]; Geomean Ki (μM)): 0.272 µM
Ki (human TfR1 [1]; Human TfR1 Ki (nM)): 0.213 µM

CC[C@H](C)[C@@H]1NC(=O)[C@@H]2CSCC(=O)N3CN(CN(C3)C(=O)CSC[C@@H](C(=O)N[C@@H](CCC(=O)O)C(=O)N3CCC[C@H]3C(=O)N[C@@H](Cc3c[nH]c4ccccc34)C(N)=O)NC(=O)[C@H](Cc3ccc(O)cc3)NC(=O)[C@H](CO)NC1=O)C(=O)CSC[C@H](NC(=O)[C@H](C)N)C(=O)N[C@@H](CO)C(=O)N1CCC[C@H]1C(=O)N[C@@H](CC(=O)O)C(=O)N[C@@H](C)C(=O)N[C@@H](Cc1c[nH]cn1)C(=O)N[C@@H](CC(C)C)C(=O)NCC(=O)N2 [BCY17114, A-(SEQ ID NO: 9)-EPW]
Kd (cynomolgus TfR1): 845 nM
